Measured values taken from patent US12214008B2, “Protein interfaces” (SyntheX, Inc., priority 2016, dated 2025).
Entries after “also recorded” stand apart in the source; their conditions may differ. Residues, ends and D or L forms follow the SMILES beside them. Groups on a side chain read outwards from the residue. *: point of attachment. 5FAM = O=C1OC2(c3ccc(O)cc3Oc3cc(O)ccc32)c2ccc(C(=O)*)cc21; Ahx = NCCCCCC(=O)O

How the values were obtained:
[1] = tested on: SSP-25 cells; assay: xCELLigence cell death assay; assay type: cell-based; conditions: for rescue of compound 10-induced cell death by ruthenium red: 40 μM Ruthenium red added to cells treated with 10 μM compound 10
Procedure: Further, singly-dosed cells continued to recover, which indicated reduced general cytotoxicity of the compound in the media or the lysed cells.
To optimize cellular activity, compounds were tested in xCELLigence cell death assays against various cell lines. An example of the workflow used is shown using A549 cells and compound 10 in FIGS. 15 and 16. […] Data from xCELLigence traces at different compound concentrations from FIG. 15 was then used to generate a dose-response curve, which was then subjected to nonlinear regression using a sigmoidal dose-response model to generate IC50s and R2 values for cell death for each compound/cell line combination (FIG. 16).
To further investigate the hypothesis that peptide binding to RAD51 in cells causes cell death via increases in intracellular free calcium levels, compound 10 alone and in combination with two different intracellular calcium chelators (1,2-Bis(2-aminophenoxy) ethane-N,N,N′,N′-tetraacetic acid tetrakis(acetoxymethyl ester) aka “BAPTA-AM”, and ammoniated ruthenium oxychloride aka “ruthenium red”) was tested in an xCELLigence™ cell death assay as in Example 3. The intracellular calcium chelators alone were also evaluated on the cells.

[2] = tested on: PC3 cells; assay: xCELLigence cell death assay; conditions: 60 μM at 24 hours
Procedure: First, 5,000 PC3 cells were plated, and adherence and growth was measured for 24 hours using live measurements of current impedance through the plate using the xCELLigence™ instrument. […] This was repeated again at the 124 hour mark.

[3] = tested on: SSP-25 cells; assay: MTT growth inhibition assay; assay type: cell-based; conditions: 5 μM or 10 μM, 48 hours of cell growth, vs water mock
Procedure: To assess the growth inhibitory properties of compounds disclosed herein, 5 μM or 10 μM of compounds 1, 3, and 5 were tested against a water mock treatment for growth inhibition of SSP-25 cells using an MTT assay after 48 hours of cell growth.

[4] = tested on: SSP-25 cells; conditions: compound 5 at 5 μM, compound 1 at 10 μM; vs PBS
Procedure: (§1) To assess the specificity of compounds disclosed herein in targeting cancers with mutations in the BRCA2 pathway, compounds 1 and 5 were tested against HeLa (human cervical cancer) and SSP-25 cells (cholangiocarcinoma cell line) (FIG. 2). To measure killing of the cells by compounds 1 and 5, a cell stain (CytoTox Red™) was used, which can be measured spectrophotometrically, and is indicative of cell viability. First, 5,000 cells were incubated in 96-well culture plates overnight. The media (RPMI with 10% FBS) was removed and replaced with serum free media (RPMI) containing 125 nM CytoTox Red™. FITC-labeled compounds 5 and 1 were added to concentrations of 5 μM and 10 μM, respectively, and imaging commenced using an IncuCyte™ instrument using 15 minute time points. 2× serum-containing media was added after one hour incubation, and the cells were imaged every 2 hours. To detect CytoTox Red™ the following parameters were used: Excitation Wavelength: 585 nm; Passband: [565,605] nm and Emission Wavelength: 635 nm; Passband: [625, 705] nm. To detect compounds 5 and 1 using the FITC label, the following parameters were used: Excitation Wavelength: 460 nm; Passband: [440,480] nm and Emission Wavelength: 524 nm; Passband: [504,544] nm was used.

[5] = tested on: HeLa; conditions: compound 5 at 5 μM, compound 1 at 10 μM
Procedure: as §1

[6] = tested on: GM08505, Blm cells
Procedure: To assess the ability of compounds disclosed herein to rescue the drug-sensitivity of Bloom's Syndrome patient cells, GM08505, Blm cells were treated with PBS, 5 μM etoposide, or 5 μM etoposide and 10 μM compound 5.

[7] = biological target: T1, RAD51 (Homo sapiens, UniProt Q06609); assay: microscale thermophoresis; assay type: binding; conditions: 0 vs 1 mM Ca2+
T1 sequence (Q06609 1-339): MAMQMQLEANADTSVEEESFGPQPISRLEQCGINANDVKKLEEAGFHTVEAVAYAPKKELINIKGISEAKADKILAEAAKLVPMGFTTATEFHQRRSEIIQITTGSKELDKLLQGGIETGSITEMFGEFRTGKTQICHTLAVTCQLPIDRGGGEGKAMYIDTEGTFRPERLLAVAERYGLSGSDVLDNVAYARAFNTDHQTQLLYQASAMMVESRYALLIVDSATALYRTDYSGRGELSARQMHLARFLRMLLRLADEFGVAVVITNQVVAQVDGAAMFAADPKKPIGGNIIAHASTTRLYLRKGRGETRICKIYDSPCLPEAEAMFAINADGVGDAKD
Procedure: To test the interaction between calcium binding and peptide binding to RAD51, the Kds of active (Compound 5, 10) peptides for RAD51 were tested by a microscale thermophoresis assay, and the Kd of compound 5 was additionally performed in the presence of 1 mM calcium.
Microscale thermophoresis was performed as previously described (see, for e.g. Jerabek-Willemsen, M., Wienken, C. J., Braun, D., Baaske, P. & Duhr, S. Molecular interaction studies using microscale thermophoresis. Assay Drug Dev. Technol. 9, 342-353 (2011)). The affinity of the Compound was measured using the Monolith NT.115 from Nanotemper Technologies. Rad51 was fluorescently labelled according to the manufacturer's protocol and the labelled protein used for each assay was about 500 nM. A solution of unlabelled peptide was diluted for appropriate serial concentration gradient. The samples were loaded into silica capillaries (Polymicro Technologies). Measurements were performed at room temperature in buffer containing PBS, 0.1% Tween 20, 0.5 mM ATP, 2.5 uM ssDNA, with 1 mM CaCl2 (when mentioned). Measurements were done using 12% LED power and 60% MST power. The assays were repeated three times for each affinity measurement. Data analyses were performed using Nanotemper Analysis software and OriginPro 8.0 software provided by the manufacturer.

[8] = tested on: SSP-25 cells; assay: growth assay (percent confluence); assay type: cell-based; conditions: 5 μM or 10 μM, compared to PBS
Procedure: A growth assay was performed using SSP-25 cells with 5 μM or 10 μM of compound 1. […] The experimental protocol described in Example 3 was used for the growth assay.
The same growth assay was repeated using 10 μM of compound 1 and compound 2. Compound 2 contains a single substitution within the core consensus sequence, which interrupts the binding of compound 2 to RAD51.

Compound: CC(=O)OCOC(=O)CN(CC(=O)OCOC(C)=O)c1ccccc1OCCOc1ccccc1N(CC(=O)OCOC(C)=O)CC(=O)OCOC(C)=O [BAPTA-AM, 1,2-Bis(2-aminophenoxy) ethane-N,N,N′,N′-tetraacetic acid tetrakis(acetoxymethyl ester)]
- rescue of compound 10-induced cell death by BAPTA-AM ([1]; 10 μM BAPTA-AM added to cells treated with 10 μM compound 10): able to counteract the cell-death inducing effects of compound 10; also recorded: rescues cell death relative to compound alone; also recorded: rescues cell death due to compound 10

Compound: CSCC[C@H](NC(=O)[C@H](CCCNC(=N)N)NC(=O)[C@H](CO)NC(=O)[C@@H](NC(=O)[C@H](CCCNC(=N)N)NC(=O)[C@H](CC(C)C)NC(=O)[C@H](CCCNC(=N)N)NC(=O)[C@@H](NC(=O)CNC(=O)[C@H](CC(C)C)NC(=O)[C@H](CCCNC(=N)N)NC(=O)[C@H](CCCCN)NC(=O)[C@H](CCCNC(=N)N)NC(=O)[C@H](CCCNC(=N)N)NC(=O)[C@H](CCCNC(=N)N)NC(=O)[C@H](CCCNC(=N)N)NC(=O)[C@H](CCCNC(=N)N)NC(=O)[C@H](CCCNC(=N)N)NC(=O)[C@H](CCCNC(=N)N)NC(=O)[C@H](CCCCNC(=O)CCCCCNC(=O)c1ccc2c(c1)C(=O)OC21c2ccc(O)cc2Oc2cc(O)ccc21)NC(C)=O)C(C)C)C(C)C)C(=O)N[C@@H](CC(C)C)C(N)=O [Compound 5] (Ac-K([Ahx-5FAM])RRRRRRRKRLGVRLRVSRML-NH2)
- cell death of PC3 cells (cell index) [2]: acute cell death kinetics; also recorded: highly potent
- PC3 cells eliminated ([2]; 100 μM more at 84 and 124 hours, compared to compound 6 and PBS controls): over 75%
- growth inhibition of SSP-25 cells [3]: strongest inhibitory effect, regardless of concentration
- cell death (CytoTox Red staining) in SSP-25 cells [4]: greatest efficacy in the SSP-25 cells
- cell death (CytoTox Red staining) in HeLa cells [5]: little cell death is generated in the HeLa cells compared to the SSP-25 cells
- efficacy in acidified media ([1]; 30 μM added at 72 hours to previously untreated cells): efficacy of compound 5 in acidified media
- cell death kinetics (cell index) ([1]; 30 μM compound 5 added at 20 hours): acute cell death kinetics
- rescue of etoposide-induced growth defect of Blm cells (percent confluence) ([6]; 5 μM etoposide and 10 μM compound 5, comparable to PBS): able to rescue the hypersensitivity of a Bloom's cell line (GM08505) to a genotoxic stress (etoposide); also recorded: suppression of cell growth defects induced by etoposide
- increase of Kd when calcium (Ca2+) raised from 0 to 1 mM [7]: 3.4 fold

Compound: N.N.N.N.N.N.N.N.N.N.N.N.N.N.[Cl-].[Cl-].[Cl-].[Cl-].[Cl-].[Cl-].[O-2].[O-2].[Ru+3].[Ru+3].[Ru+4] [Ruthenium red, ammoniated ruthenium oxychloride]
- rescue of compound 10-induced cell death by ruthenium red [1]: able to counteract the cell-death inducing effects of compound 10; also recorded: rescues cell death relative to compound alone
- rescue of compound 10-induced cell death by ruthenium red ([1]; listed as ruthenium red): rescues cell death due to compound 10

Compound: COc1cc([C@@H]2c3cc4c(cc3[C@@H](O[C@@H]3O[C@@H]5CO[C@@H](C)O[C@H]5[C@H](O)[C@H]3O)[C@H]3COC(=O)[C@H]23)OCO4)cc(OC)c1O [etoposide, reference compound]
- growth of Blm cells (percent confluence) ([6]; 5 μM etoposide alone): growth of the Blm cells was affected

Compound: Ac-K(C6_5FAM)-QSLRLGLSRLARVKRLHPGARRRRRRRR-NH2 (Ac-K(C6_5FAM)QSLRLGLSRLARVKRLHPGARRRRRRRR-NH2) [Compound 1]
- growth inhibition of SSP-25 cells [3]: dose-dependent effect on the growth of SSP-25
- percent confluence of SSP-25 cells [8]: decreased the percent confluence of the cells

Compound: KQSLRLGLSRLARVKRLHPGARRRRRRRR [Compound 3]
- growth inhibition of SSP-25 cells [3]: dose-dependent effect on the growth of SSP-25
